Results published in ChEMBL document CHEMBL5724914, “Linking interpersonal differences in gut microbiota composition and drug biotransformation activity” (2024).

Legend:
[1] = (§1) The drug is tested on WLS-170 corresponding to human gut metagenome with ENA study accession number: PRJEB37062 and ENA sample accession number: ERS12561762 for biotransformation under anaerobic condition. The drug concentrations were measured over 9 timepoints collected between 0 and 24 hours of incubation by liquid-chromatography-coupled mass spectrometry (LC–MS); details: 2 µM
[2] = human gut metagenome, 24 h, 2 µM
[3] = as §1, with “Z-014” for “WLS-170”, “rat” for “human”, “ERS12561814” for “ERS12561762”; details: 2 µM
[4] = human gut metagenome, 24 h, 2 µM; remark: listed apart in the source
[5] = as §1, with “WLS-027” for “WLS-170”, “ERS12561744” for “ERS12561762”; details: 2 µM
[6] = human gut metagenome, 24 h, 2 µM; remark: listed apart in the source
[7] = human gut metagenome, 24 h, 2 µM; remark: listed apart in the source
[8] = as §1, with “Z-026” for “WLS-170”, “to” for “to human gut”, “ERS12561825” for “ERS12561762”; details: 2 µM
[9] = as §1, with “Z-001” for “WLS-170”, “mouse” for “human”, “ERS12561801” for “ERS12561762”; details: 2 µM
[10] = human gut metagenome, 24 h, 2 µM; remark: listed apart in the source
[11] = human gut metagenome, 24 h, 2 µM; remark: listed apart in the source
[12] = human gut metagenome, 24 h, 2 µM; remark: listed apart in the source
[13] = human gut metagenome, 24 h, 2 µM; remark: listed apart in the source
[14] = as §1, with “Z-025” for “WLS-170”, “rabbit” for “human”, “ERS12561824” for “ERS12561762”; details: 2 µM
[15] = as §1, with “Z-004” for “WLS-170”, “to” for “to human gut”, “ERS12561804” for “ERS12561762”; details: 2 µM
[16] = as §1, with “Z-022” for “WLS-170”, “mouse” for “human”, “ERS12561821” for “ERS12561762”; details: 2 µM
[17] = human gut metagenome, 24 h, 2 µM; remark: listed apart in the source
[18] = as §1, with “WLS-007” for “WLS-170”, “ERS12561742” for “ERS12561762”; details: 2 µM
[19] = as §1, with “Z-020” for “WLS-170”, “rabbit” for “human”, “ERS12561819” for “ERS12561762”; details: 2 µM
[20] = as §1, with “Z-021” for “WLS-170”, “to” for “to human gut”, “ERS12561820” for “ERS12561762”; details: 2 µM
Further: call rule not given here.

CCOC(=O)[C@H](CCc1ccccc1)N[C@@H](C)C(=O)N1[C@H](C(=O)O)C[C@@H]2CCC[C@@H]21
Bacterial Biotransformation [1]: Compound metabolized | Bacterial Biotransformation [2]: Compound metabolized | Bacterial Biotransformation [3]: Compound NOT metabolized | Bacterial Biotransformation [4]: Compound metabolized | Bacterial Biotransformation [5]: Compound metabolized | Bacterial Biotransformation [6]: Compound NOT metabolized | Bacterial Biotransformation [7]: Compound metabolized | Bacterial Biotransformation [8]: Compound NOT metabolized | Bacterial Biotransformation [9]: Compound NOT metabolized | Bacterial Biotransformation [10]: Compound metabolized | Bacterial Biotransformation [11]: Compound metabolized | Bacterial Biotransformation [12]: Compound metabolized | Bacterial Biotransformation [13]: Compound metabolized | Bacterial Biotransformation [14]: Compound NOT metabolized | Bacterial Biotransformation [15]: Compound metabolized | Bacterial Biotransformation [16]: Compound metabolized | Bacterial Biotransformation [17]: Compound metabolized | Bacterial Biotransformation [18]: Compound metabolized | Bacterial Biotransformation [19]: Compound metabolized | Bacterial Biotransformation [20]: Compound metabolized

CCN(CC)CCNC(C(=O)OCCC(C)C)c1ccccc1.Cl.Cl (stereo not given)
Bacterial Biotransformation [1]: Compound metabolized | Bacterial Biotransformation [2]: Compound metabolized | Bacterial Biotransformation [3]: Compound NOT metabolized | Bacterial Biotransformation [4]: Compound metabolized | Bacterial Biotransformation [5]: Compound metabolized | Bacterial Biotransformation [6]: Compound NOT metabolized | Bacterial Biotransformation [7]: Compound metabolized | Bacterial Biotransformation [8]: Compound NOT metabolized | Bacterial Biotransformation [9]: Compound metabolized | Bacterial Biotransformation [10]: Compound metabolized | Bacterial Biotransformation [11]: Compound metabolized | Bacterial Biotransformation [12]: Compound metabolized | Bacterial Biotransformation [13]: Compound metabolized | Bacterial Biotransformation [14]: Compound NOT metabolized | Bacterial Biotransformation [15]: Compound NOT metabolized | Bacterial Biotransformation [16]: Compound metabolized | Bacterial Biotransformation [17]: Compound metabolized | Bacterial Biotransformation [18]: Compound metabolized | Bacterial Biotransformation [19]: Compound metabolized | Bacterial Biotransformation [20]: Compound metabolized

CCCC(=O)Nc1ccc(OCC(O)CNC(C)C)c(C(C)=O)c1 (stereo not given) [ACEBUTOLOL]
Bacterial Biotransformation [1]: Compound metabolized | Bacterial Biotransformation [2]: Compound metabolized | Bacterial Biotransformation [3]: Compound NOT metabolized | Bacterial Biotransformation [4]: Compound metabolized | Bacterial Biotransformation [5]: Compound NOT metabolized | Bacterial Biotransformation [6]: Compound NOT metabolized | Bacterial Biotransformation [7]: Compound NOT metabolized | Bacterial Biotransformation [8]: Compound NOT metabolized | Bacterial Biotransformation [9]: Compound NOT metabolized | Bacterial Biotransformation [10]: Compound metabolized | Bacterial Biotransformation [11]: Compound metabolized | Bacterial Biotransformation [12]: Compound metabolized | Bacterial Biotransformation [13]: Compound metabolized | Bacterial Biotransformation [14]: Compound NOT metabolized | Bacterial Biotransformation [15]: Compound NOT metabolized | Bacterial Biotransformation [16]: Compound metabolized | Bacterial Biotransformation [17]: Compound metabolized | Bacterial Biotransformation [18]: Compound NOT metabolized | Bacterial Biotransformation [19]: Compound NOT metabolized | Bacterial Biotransformation [20]: Compound metabolized

C=CCc1ccccc1OCC(O)CNC(C)C (stereo not given) [ALPRENOLOL]
Bacterial Biotransformation [1]: Compound metabolized | Bacterial Biotransformation [2]: Compound NOT metabolized | Bacterial Biotransformation [3]: Compound NOT metabolized | Bacterial Biotransformation [4]: Compound NOT metabolized | Bacterial Biotransformation [5]: Compound NOT metabolized | Bacterial Biotransformation [6]: Compound NOT metabolized | Bacterial Biotransformation [7]: Compound metabolized | Bacterial Biotransformation [8]: Compound metabolized | Bacterial Biotransformation [9]: Compound NOT metabolized | Bacterial Biotransformation [10]: Compound metabolized | Bacterial Biotransformation [11]: Compound NOT metabolized | Bacterial Biotransformation [12]: Compound NOT metabolized | Bacterial Biotransformation [13]: Compound NOT metabolized | Bacterial Biotransformation [14]: Compound metabolized | Bacterial Biotransformation [15]: Compound NOT metabolized | Bacterial Biotransformation [16]: Compound metabolized | Bacterial Biotransformation [17]: Compound NOT metabolized | Bacterial Biotransformation [18]: Compound NOT metabolized | Bacterial Biotransformation [19]: Compound NOT metabolized | Bacterial Biotransformation [20]: Compound metabolized

CC(C)c1c(C(=O)Nc2ccccc2)c(-c2ccccc2)c(-c2ccc(F)cc2)n1CC[C@@H](O)C[C@@H](O)CC(=O)O [ATORVASTATIN]
Bacterial Biotransformation [1]: Compound metabolized | Bacterial Biotransformation [2]: Compound metabolized | Bacterial Biotransformation [3]: Compound NOT metabolized | Bacterial Biotransformation [4]: Compound metabolized | Bacterial Biotransformation [5]: Compound metabolized | Bacterial Biotransformation [6]: Compound NOT metabolized | Bacterial Biotransformation [7]: Compound NOT metabolized | Bacterial Biotransformation [8]: Compound NOT metabolized | Bacterial Biotransformation [9]: Compound NOT metabolized | Bacterial Biotransformation [10]: Compound metabolized | Bacterial Biotransformation [11]: Compound metabolized | Bacterial Biotransformation [12]: Compound metabolized | Bacterial Biotransformation [13]: Compound NOT metabolized | Bacterial Biotransformation [14]: Compound NOT metabolized | Bacterial Biotransformation [15]: Compound NOT metabolized | Bacterial Biotransformation [16]: Compound NOT metabolized | Bacterial Biotransformation [17]: Compound metabolized | Bacterial Biotransformation [18]: Compound metabolized | Bacterial Biotransformation [19]: Compound NOT metabolized | Bacterial Biotransformation [20]: Compound NOT metabolized

CCOC(=O)[C@H](CCc1ccccc1)N[C@H]1CCc2ccccc2N(CC(=O)O)C1=O [BENAZEPRIL]
Bacterial Biotransformation [1]: Compound metabolized | Bacterial Biotransformation [2]: Compound metabolized | Bacterial Biotransformation [3]: Compound NOT metabolized | Bacterial Biotransformation [4]: Compound metabolized | Bacterial Biotransformation [5]: Compound metabolized | Bacterial Biotransformation [6]: Compound NOT metabolized | Bacterial Biotransformation [7]: Compound metabolized | Bacterial Biotransformation [8]: Compound metabolized | Bacterial Biotransformation [9]: Compound metabolized | Bacterial Biotransformation [10]: Compound metabolized | Bacterial Biotransformation [11]: Compound metabolized | Bacterial Biotransformation [12]: Compound metabolized | Bacterial Biotransformation [13]: Compound metabolized | Bacterial Biotransformation [14]: Compound NOT metabolized | Bacterial Biotransformation [15]: Compound metabolized | Bacterial Biotransformation [16]: Compound metabolized | Bacterial Biotransformation [17]: Compound metabolized | Bacterial Biotransformation [18]: Compound metabolized | Bacterial Biotransformation [19]: Compound metabolized | Bacterial Biotransformation [20]: Compound metabolized

NS(=O)(=O)c1cc2c(cc1Cl)N=C(CSCc1ccccc1)NS2(=O)=O [BENZTHIAZIDE]
Bacterial Biotransformation [1]: Compound NOT metabolized | Bacterial Biotransformation [2]: Compound NOT metabolized | Bacterial Biotransformation [3]: Compound NOT metabolized | Bacterial Biotransformation [4]: Compound NOT metabolized | Bacterial Biotransformation [5]: Compound NOT metabolized | Bacterial Biotransformation [6]: Compound NOT metabolized | Bacterial Biotransformation [7]: Compound NOT metabolized | Bacterial Biotransformation [8]: Compound NOT metabolized | Bacterial Biotransformation [9]: Compound NOT metabolized | Bacterial Biotransformation [10]: Compound metabolized | Bacterial Biotransformation [11]: Compound NOT metabolized | Bacterial Biotransformation [12]: Compound NOT metabolized | Bacterial Biotransformation [13]: Compound NOT metabolized | Bacterial Biotransformation [14]: Compound metabolized | Bacterial Biotransformation [15]: Compound NOT metabolized | Bacterial Biotransformation [16]: Compound NOT metabolized | Bacterial Biotransformation [17]: Compound NOT metabolized | Bacterial Biotransformation [18]: Compound NOT metabolized | Bacterial Biotransformation [19]: Compound NOT metabolized | Bacterial Biotransformation [20]: Compound metabolized
